Source: patent US20160263073A1, “MONOACYLGLYCEROLS FOR USE IN THE TREATMENT OF MALABSORPTION HAVING A MECHANICAL BASIS” (NESTEC S.A., priority 2013, published 2016)

Experiments:
[1] = lipid maldigestion or malabsorption rat model (XENICAL-induced): EPA level in red blood cell lipids; assay type: in vivo; details: rats; for level of EPA incorporated in red blood cells: day 7, with XENICAL (ORLISTAT), FIG. 2
Experimental: The concept was tested in a lipid maldigestion or malabsorption rat model. The maldigestion or malabsorption condition was obtained using XENICAL® (ORLISTAT), a pancreatic and gastric lipases inhibitor (tetrahydrolipstatin; see FIG. 7). Rats were fed during 21 days with long-chain polyunsaturated fatty acid (LC-PUFA) supplements containing mainly eicosapentaenoic (EPA) acid. Fish oil was used as a source of triacylglycerols, and different EPA glycerides were evaluated. XENICAL® (ORLISTAT) was given at a level sufficient to decrease lipid absorption by 40%. A group receiving fish oil without XENICAL® (ORLISTAT) was used as a positive control. At different time intervals (D3, D7, […]), the fatty acid profiles of red blood cell and plasma lipids were determined. At the end of the experiment, the fatty acid profiles of different tissues were determined. The main objective was to follow the level of EPA in red blood cell and plasma lipids. The main comparison evaluated was the difference in EPA level between the group receiving EPA-containing sn-1(3) MAG in combination with XENICAL® (ORLISTAT) and the positive control group (fish oil+XENICAL® (ORLISTAT)). […] This comparison corroborates the validity of the model.

[2] = clinical study: sn-1(3) MAG versus fish oil (TAG) in delivering EPA under lipid maldigestion induced by XENICAL; assay type: in vivo, human
Experimental: This clinical study compared the efficacy of sn-1(3) MAG and fish oil (TAG) in delivering EPA in humans under lipid maldigestion conditions induced by XENICAL® (ORLISTAT). The comparison was tested in volunteers having a BMI of 37-40 kg/m^2 and treated with XENICAL® (ORLISTAT) to induce lipid maldigestion or not treated with XENICAL® (ORLISTAT). The primary objective was to assess accretion of EPA in erythrocytes over 21 days when consumed as fish oil (TAG) or sn-1(3) MAG. The secondary objectives were to assess accretion of EPA in plasma over 21 days and also to assess the pharmacokinetics of EPA after an acute dose either in the form of sn-1(3) MAG or TAG (AUC in chylomicrons over 10 hours postprandial).

Row | SMILES | EPA incorporation in red blood cells ([1]; day 7, fish oil with XENICAL compared with fish oil without XENICAL) | chronic effect: accretion of EPA in erythrocytes after 21 days ([2]; humans, with XENICAL, in comparison to fish oil and XENICAL, p=0.0001, FIG. 5) | chronic effect: accretion of EPA in plasma after 21 days ([2]; humans, with XENICAL, relative to fish oil and XENICAL, p=0.0003, FIG. 6) | carrier for EPA ([2]; obese subjects treated with XENICAL, compared with fish oil (TAG)) | incorporation of LC-PUFAs in tissue ([1]; conditions of lipid maldigestion or malabsorption) | level of EPA incorporated in red blood cells ([1]; compared with fish oil in combination with XENICAL, all P values lower than 0.05) | level of EPA incorporated in red blood cells ([1]; compared with the fish oil group without XENICAL)
1 | CCCCCCCCCCC[C@@H](C[C@@H]1OC(=O)[C@H]1CCCCCC)OC(=O)[C@H](CC(C)C)NC=O [XENICAL® (ORLISTAT), tetrahydrolipstatin, reference compound] | decreases EPA incorporation in red blood cells |  |  |  |  |  | 
2 | CC/C=C\C/C=C\C/C=C\C/C=C\C/C=C\CCCC(=O)OCC(O)CO (stereo not shown) [sn-1(3) MAG, sn-1(3)-monoeicosapentaenoylglycerol] |  | statistically significant | statistically significant | better carrier for EPA than fish oil (TAG) | improved | statistically higher | even higher than the fish oil group
